According to US9164086B2, “Fluorescent dyes with phosphorylated hydroxymethyl groups and their use in light microscopy and imaging techniques” (Max-Planck-Gesellschaft zur Foerderung der Wissenschaften …, priority 2011, dated 2015):
Entries after “also recorded” stand apart in the source; their conditions may differ.

Columns and labels:
[1] = commercial dyes, solvent not stated; cited from earlier work
[2] = UV-visible absorption spectra; assay type: physicochemical; conditions: for λabs of the conjugate: conjugate with sheep anti-mouse IG
Procedure: (§1) UV-visible absorption spectra were recorded on a Varian Cary 4000 UV-Vis spectrophotometer, and fluorescence spectra on a Varian Cary Eclipse fluorescence spectrophotometer. Reactions were carried out with magnetic stirring in Schlenk flasks equipped with septa or reflux condensers with bubble-counters under argon using a standard manifold with vacuum and argon lines. The MICROTOF spectrometer equipped with ESI ion source Apollo and direct injector with LC autosampler Agilent RR 1200 was used for obtaining mass spectra and high resolution mass-spectra (ESI-HRMS). ESI-HRMS were obtained also on APEX IV spectrometer (Bruker). ESI spectra were also obtained on a Varian 500MS spectrometer in some cases. HPLC system (Knauer): Smartline pump 1000 (2×), UV detector 2500, column thermostat 4000 (25° C.), mixing chamber, injection valve with 20 and 100 μL loop for analytical and preparative columns, respectively; 6-port-3-channel switching valve; analytical column: Eurospher-100 C18, 5 μm, 250×4 mm, 1.2 mL/min; preparative column: Eurospher-100-5 C18, 5 μm, 250×8 mm, 4 mL/min; solvent A: water+0.1% v/v trifluoroacetic acid (TFA); solvent B: CH3CN+0.1% v/v TFA; detection at 636 nm (if not stated otherwise). Normal phase analytical TLC was performed on MERCK ready-to-use plates with silica gel 60 (F254).

[3] = Fluorescence spectra, quantum yield and excited state lifetime; assay type: physicochemical; conditions: for Φfl. / Φfl. of the conjugate: as fraction; for fluorescence quantum yield of the antibody conjugates obtained from the dye: after attaching to antibodies; for λem of the conjugate / Φfl. of the conjugate: conjugate with sheep anti-mouse IG
Procedure: as §1

[4] = Solubility (qualitative); assay type: physicochemical; conditions: for solubility in other solvents and buffers: solvents named in the value

Q: For `CC1(C)C=C(CS(=O)(=O)O)c2cc3c(C(F)(F)F)cc(=O)oc3cc2N1CCCCCC(=O)ON1C(=O)CCC1=O.CCN(CC)CC` [Alexa Fluor™ 430], which absorption maximum [1] is on record?
A: 434 nm

Q: What about the emission maximum [1] of the same molecule?
A: 539 nm

Q: For `CC(C)(C)OC(=O)CCCN1c2cc3oc(=O)c(-c4ccncc4)cc3cc2C(COP(=O)(OC(C)(C)C)OC(C)(C)C)=CC1(C)C` [Compound 10], which ε ([2]; MeOH) is on record?
A: 30700 M⁻¹ cm⁻¹

Q: And the “ε · 10^−4” value ([2]; MeOH)?
A: 3.07 M^−1 cm^−1

Q: What about the “λmax (abs.)” value ([2]; MeOH) of the same molecule?
A: 430 nm

Q: What about the “fluorescence quantum yields (in words)” value [3] of the same molecule?
A: high

Q: What about the “Φfl (fluorescence quantum yield)” value ([3]; MeOH) of the same molecule?
A: 82%

Q: What about the “λmax (fl.)” value ([3]; MeOH) of the same molecule?
A: 501 nm

Q: And the Φfl. ([3]; MeOH)?
A: 0.82

Q: And the “Remarks: solubility in water” value ([4]; water)?
A: Low solubility in water

Q: Which results are given for `CC1(C)C=C(COP(=O)(O)O)c2cc3cc(-c4ccncc4)c(=O)oc3cc2N1CCCC(=O)O` [Compound 11]?
A: ε · 10^−4 ([2]; PBS (7.4)): 2.27 M^−1 cm^−1; λmax (abs.) ([2]; PBS (7.4)): 436 nm; ε ([2]; PBS buffer at pH 7.4): 22700 M⁻¹ cm⁻¹; Stokes shift [3]: 79 nm; fluorescence quantum yields (in words) [3]: high; Φfl (fluorescence quantum yield) ([3]; PBS (7.4)): 68%; λmax (fl.) ([3]; PBS (7.4)): 515 nm; τ1 (lifetime of the excited state) ([3]; PBS (7.4)): 3.3 ns; Φfl. ([3]; PBS buffer at pH 7.4): 0.68; fluorescence quantum yield of the antibody conjugates obtained from the dye [3]: 30%

Q: With `CC1(C)C=C(COP(=O)(O)O)c2cc3cc(-c4ccncc4)c(=O)oc3cc2N1CCCC(=O)ON1C(=O)CCC1=O` [Compound 12] as the molecule, how does the “λabs of the conjugate” value ([2]; PBS buffer at pH 7.4) read?
A: 439 nm

Q: What about the “λem of the conjugate” value ([3]; PBS buffer at pH 7.4) of the same molecule?
A: 513 nm

Q: What about the “Φfl. of the conjugate” value ([3]; PBS buffer at pH 7.4) of the same molecule?
A: 0.30

Q: For `CCOC(=O)CCCN1c2cc3oc(=O)c(-c4ccncc4)cc3cc2C(C)=CC1(C)C` [Compound 18, reference compound], which ε ([2]; MeOH) is on record?
A: 33400 M⁻¹ cm⁻¹

Q: And the “ε · 10^−4” value ([2]; MeOH)?
A: 3.34 M^−1 cm^−1

Q: And the “λmax (abs.)” value ([2]; MeOH)?
A: 437 nm

Q: What about the “fluorescence quantum yields (in words)” value [3] of the same molecule?
A: high

Q: And the “Φfl (fluorescence quantum yield)” value ([3]; MeOH)?
A: 77%

Q: And the “λmax (fl.)” value ([3]; MeOH)?
A: 507 nm

Q: What about the Φfl. ([3]; MeOH) of the same molecule?
A: 0.77

Q: What about the “Remarks: solubility in water” value ([4]; water) of the same molecule?
A: Low solubility in water

Q: For `CC1(C)C=C(CS(=O)(=O)O)c2cc3cc(-c4ccncc4)c(=O)oc3cc2N1CCCC(=O)O` [Compound 20-H, reference compound], which ε ([2]; MeOH) is on record?
A: 25900 M⁻¹ cm⁻¹

Q: What about the “ε · 10^−4” value ([2]; MeOH) of the same molecule?
A: 2.59 M^−1 cm^−1

Q: And the “λmax (abs.)” value ([2]; MeOH)?
A: 436 nm

Q: And the “ε · 10^−4” value ([2]; PBS (7.4))?
A: 3.12 M^−1 cm^−1

Q: What about the “λmax (abs.)” value ([2]; PBS (7.4)) of the same molecule?
A: 436 nm

Q: And the ε ([2]; PBS buffer at pH 7.4)?
A: 31200 M⁻¹ cm⁻¹

Q: What about the “fluorescence quantum yields (in words)” value [3] of the same molecule?
A: high

Q: And the “Φfl (fluorescence quantum yield)” value ([3]; MeOH)?
A: 56%

Q: What about the “λmax (fl.)” value ([3]; MeOH) of the same molecule?
A: 510 nm

Q: And the Φfl. ([3]; MeOH)?
A: 0.56

Q: And the “Φfl (fluorescence quantum yield)” value ([3]; PBS (7.4))?
A: 57%

Q: And the “λmax (fl.)” value ([3]; PBS (7.4))?
A: 515 nm

Q: And the Φfl. ([3]; PBS buffer at pH 7.4)?
A: 0.57

Q: What about the “fluorescence quantum yield of the antibody conjugates obtained from the dye” value (“fluorescence quantum yield … from the dye” below) [3] of the same molecule?
A: 18%

Q: For `CC1(C)C=C(CS(=O)(=O)O)c2cc3cc(-c4ccncc4)c(=O)oc3cc2N1CCCC(=O)ON1C(=O)CCC1=O` [Compound 20-NHS, reference compound], which “λabs of the conjugate” value ([2]; PBS buffer at pH 7.4) is on record?
A: 437 nm

Q: What about the “λem of the conjugate” value ([3]; PBS buffer at pH 7.4) of the same molecule?
A: 512 nm

Q: What about the “Φfl. of the conjugate” value ([3]; PBS buffer at pH 7.4) of the same molecule?
A: 0.18

Q: With `CN(CCCC(=O)O)C(=O)c1c(F)c(F)c(F)c(F)c1C1=c2cc3c4c(c2Oc2c1cc1c5c2CCCN5C(C)(C)C=C1CO)CCC[N+]=4C(C)(C)C=C3CO` [Compound 24-H] as the molecule, how does the “ε · 10^−4” value ([2]; H2O) read?
A: 8.6 M^−1 cm^−1

Q: And the “λmax (abs.)” value ([2]; H2O)?
A: 632 nm

Q: What about the “Φfl (fluorescence quantum yield)” value ([3]; H2O) of the same molecule?
A: 85%

Q: And the “λmax (fl.)” value ([3]; H2O)?
A: 654 nm

Q: And the “fluorescence quantum yield … from the dye” value [3]?
A: 66%

Q: And the “solubility in aqueous buffers” value ([4]; aqueous buffers)?
A: low solubility in aqueous buffers

Q: What about the “solubility in other solvents and buffers” value [4] of the same molecule?
A: well-soluble in MeOH, CH3CN, and chlorinated solvents

Q: What about the “Remarks: solubility in water” value ([4]; water) of the same molecule?
A: Limited solubility in water

Q: What about the “solubility in water” value ([4]; water) of the same molecule?
A: slightly soluble in water

Q: With `CN(CCCC(=O)O)C(=O)c1c(F)c(F)c(F)c(F)c1C1=c2cc3c4c(c2Oc2c1cc1c5c2CCCN5C(C)(C)C=C1COP(=O)(O)O)CCC[N+]=4C(C)(C)C=C3COP(=O)([O-])O` [Compound 26-H] as the molecule, how does the “ε · 10^−4” value ([2]; H2O) read?
A: 7.5 M^−1 cm^−1

Q: And the “λmax (abs.)” value ([2]; H2O)?
A: 635 nm

Q: What about the “Φfl (fluorescence quantum yield)” value ([3]; H2O) of the same molecule?
A: 83%

Q: What about the “λmax (fl.)” value ([3]; H2O) of the same molecule?
A: 655 nm

Q: And the “τ1 (lifetime of the excited state)” value ([3]; H2O, monoexponential fit)?
A: 3.0 ns

Q: What about the “fluorescence quantum yield … from the dye” value [3] of the same molecule?
A: 51%

Q: And the “solubility in other solvents and buffers” value [4]?
A: well-soluble in aq. NaHCO3, alkali, Et3N, and PBS buffers, MeOH; also recorded: insoluble in acetone, CH3CN, chloroform
